Laboratory results taken from patent US20100248267A1, “METHOD FOR MEASUREMENT OF CONCENTRATION OF ANTIGEN” (JAPAN SCIENCE AND TECHNOLOGY AGENCY, priority 2007, published 2010).

Key:
[1] = system: antibody-enzyme fusion protein (VH-cpBLA-VL); test: β-lactamase activity change of VH-cpBLA-VL with fluorogenic substrate Fluorocillin; assay type: biochemical; conditions: 5 μl of 10 μg/ml antigen, 10 μM Fluorocillin, room temperature 30 minutes
Procedure: Next, a similar experiment was performed using a fluorogenic substrate Fluorocillin instead of the chromogenic substrate Nitrocefin. Specifically, 5 μl of concentrated VH-cpBLA-VL protein solution prepared in Example 9, and 5 of 10 μg/ml ICP or TCP were mixed, and incubated at 4° C. for 30 minutes. Then, 90 μl of PBS containing 10 μM Fluorocillin was added, and incubated at a room temperature for 30 minutes. The fluorescence at 535 nm with 435 nm excitation was measured using a microplate reader Genios Pro (Tecan Japan Co., Ltd.). […] In other words, the increase of the ICP-dependent β-lactamase activity was observed.

[2] = system: antibody-enzyme fusion protein (VH-cpBLA-VL(219)); test: Activity assay of VH-cpBLA-VL(219) using Fluorocillin; assay type: biochemical; conditions: triplicate; for change in signal intensity (fluorescence): antigen final concentration 1 μg/ml, compared with PBS
Procedure: Activity of the above prepared antibody-enzyme fusion protein (VH-cpBLA-VL(219)) was assayed using Fluorocillin. The antigen peptide BGP-C7 at a final concentration of 0-2000 ng/ml and the antibody-enzyme fusion protein at a final concentration of 300 nM were mixed in 50 μl of PBS, and the mixture was dispensed into black microplate wells. After adding 50 μL of 2 μM Fluorocillin in PBS, the mixture was incubated at 28° C. for 60 minutes, and read for its fluorescence intensity (intensity at 535 nm with excitation light irradiation at 485 nm). Also, control experiments were performed without antibody-enzyme fusion protein, and the fluorescence intensity of these wells was used for background subtraction. […] For information, the measurement of the present experiment was performed in triplicate. Black circles in FIG. 14 indicate the average value of the measured values and the error bars indicate 1SD.
Further, similar experiments were performed using a substance other than BGP-C7 (BGP-C8, BGP-C10, ICP, TCP with each final concentration of 1 μg/ml) as antigens.

[3] = system: wild-type BL21 (DE3, pLysS) strain; test: Toxicity test of ICP in E. coli (growth curve, turbidity at 660 nm); assay type: cell-based; conditions: 100 ng/ml ICP, LB medium, 27° C. overnight, versus medium without ICP
Procedure: The BL21 (DE3, pLysS) strain was cultured at 30° C. overnight on an LB agar medium plate containing 37 μg/ml of chloramphenicol. The generated colonies were picked with a toothpick, inoculated and cultured in a 4 ml of the LB liquid culture medium containing 37 μg/ml of chloramphenicol at 27° C. overnight. 40 μl of this pre-cultured medium was inoculated and cultured in a 4 ml of the liquid culture medium containing 37 μg/ml of chloramphenicol and 100 ng/ml of ICP at 27° C. overnight, with measuring the time course of turbidity change using Mini photo 518R (TAITEC CORPORATION) at 660 nm.

[4] = system: VH-cpBLA-VL/pET26/BL21 strain; test: Growth assay using VH-cpBLA-VL expressing strain; assay type: cell-based, E. coli; conditions: 100 μg/ml ampicillin LB medium
Procedure: Also, for the growth assay, ICP which is the target antigen of this antibody-enzyme fusion protein, and the thiacloprid (TCP) which is an analog of ICP with a lower cross-reactivity than ICP were used. In further detail, the assay was performed by the following procedures.
First, the strain expressing VH-cpBLA-VL (antibody-enzyme fusion protein) was prepared.
0.5 μg of VH-cpBLA-VL/pET26 was used for transformation of 100 μl of the BL21 (DE3, pLysS) strain (F-, ompT, hsdSB, (rB-, mB-), dcm, gal, λ(DE3), pLysS, Cmr), and the transformed cells were cultured on an LB agar medium plate containing 50 μg/ml of kanamycin and 37 μg/ml of chloramphenicol at 30° C. overnight, to prepare an antibody-enzyme fusion protein expressing strain (VH-cpBLA-VL/pET26/BL21 strain). After the overnight culture, colonies generated on the above-mentioned LB agar medium plate were picked with a toothpick, inoculated and cultured in a 4 ml of the LB liquid culture medium plate containing 50 μg/ml of kanamycin and 37 μg/ml of chloramphenicol at 27° C. overnight. 4 μl of this pre-cultured medium was inoculated and cultured in 4 ml of the LB liquid culture medium containing 50 μg/ml of kanamycin and 37 μg/ml of chloramphenicol, 1 mM of IPTG, 0 or 100 μg/ml ampicillin, 0 to 10 ng/ml of ICP or TCP at 27° C. for 33 hours, with measuring the time course of turbidity change using Mini photo 518R at 660 nm.

[5] = system: VH-split•cpBLA-VL/pET26/C43 strain; test: Growth assay using VH-split•cpBLA-VL expressing strain; assay type: cell-based, E. coli
Procedure: (§1) By applying the assay of the above-mentioned Example 6, VH-split•cpBLA-VL/pET26 was used instead of VH-cpBLA-VL/pET26, and the E. coli C43 (DE3) strain (Lucigen Corporation) suitable for overexpression of a highly toxic protein was used instead of the BL21 (DE3, pLysS) strain, to investigate the expression in the strains. To be specific, 0.5 μg of VH-split•cpBLA-VL/pET26 was used for transformation for the C43 (DE3) strain, and the transformed cells were cultured on a LB agar medium plate containing 50 μg/ml of kanamycin at 30° C. overnight, and the VH-split•cpBLA-VL expressing strain (VH-split•cpBLA-VL/pET26/C43 strain) was prepared. After overnight culture, the colonies generated on the above-mentioned LB agar medium plate were picked with a toothpick, inoculated and cultured in a 4 ml of the LB liquid medium containing 50 […] (LBK) at 27° C. overnight. 10 μl of this pre-cultured medium was inoculated in 1 ml of the LBK liquid medium containing 1 mM of IPTG, 0 or 10 μg/ml of ampicillin, 10 ng/ml of ICP or TCP. After the cells were cultured at 27° C. for 45 hours, the turbidity was measured using Mini photo 518R at 660 nm.

[6] = system: antibody-enzyme fusion protein (VH-cpBLA-VL); test: β-lactamase activity change of VH-cpBLA-VL with chromogenic substrate Nitrocefin; assay type: biochemical; conditions: 5 μl of 10 μg/ml antigen, 1 mM Nitrocefin, room temperature 18 hours
Procedure: First, 5 μl of the concentrated VH-cpBLA-VL protein solution prepared in Example 9, 5 μl of 10 μg/ml ICP or TCP, and 90 μl of PBS containing 1 mM of Nitrocefin were mixed, and left in a dark place at a room temperature for 18 hours. Then, the absorbance at 490 nm of the reaction solution was measured to investigate the change in the β-lactamase activity. Further, absorbance at 490 nm was also measured when PBS was used instead of ICP or TCP (the item “PBS” in FIG. 12), or when VH-cpBLA-VL protein solution was not added (the item “Nitrocefin” in FIG. 12). […] In other words, the ICP-dependent increase of β-lactamase activity was observed.

[7] = ELISA for antigen binding ability of the antibody-enzyme fusion protein; conditions: ICP-BSA versus BSA coated plates
Procedure: The following ELISA assay was performed to confirm whether the antibody-enzyme fusion protein (VH-cpBLA-VL) actually has a binding activity to the antigen (ICP).
PBS solution containing 10 μg/ml of ICP-BSA or BSA was dispensed into Falcon 3912 microplates by 100 μl each, and left at 4° C. for 16 hours. After discarding the solution from the microplates, 200 μl of PBS including 25% of Immunoblock was added and left at a room temperature for 2 hours for blocking. Next, after washing the microplates with PBS-T, […] of the purified antibody-enzyme fusion protein (VH-cpBLA-VL) prepared in the above-mentioned Example 9 and 100 μl of PBS containing 5% Immunoblock were added, and left at a room temperature for 90 minutes. In order to detect the antibody-enzyme fusion protein (VH-cpBLA-VL) bound to the solid-phase by the above preparation, the microplates were washed with PBS-T, and added with HRP labeled Penta-His (QIAGEN K.K., Tokyo) diluted in 1/2000 in PBS containing 5% Immunoblock. […] After incubation for 5 minutes in a dark place, the reaction was stopped by adding 50 μl of 3.2 N of H2SO4, and the absorbance was measured with a platereader (450 nm).
Also, the above-mentioned ELISA was applied for VH-split•cpBLA-VL(VH-BLAc and BLAn-VL) or cpBLA instead of using VH-cpBLA-VL, and the absorbance was measured similarly. […]

[8] = system: cpBLA/pET26/BL21 strain or cpBLA/pET26/C43 strain; test: Growth assay using cpBLA expressing strain; assay type: cell-based, E. coli
Procedure: as §1

[9] = less than 100 μg/ml ICP or TCP added

Molecule: O=[N+]([O-])NC1=NCCN1Cc1ccc(Cl)nc1 [ICP, imidacloprid]
- change in β-lactamase activity (fluorescence at 535 nm) [1]: significant signal increase
- change in signal intensity (fluorescence) [2]: only the same signal intensity as PBS
- toxicity or growth-promoting activity in E. coli [3]: no toxicity or growth-promoting activity
- time after initiation of measurement from which growth was observed ([4]; ICP at 1 ng/ml): about 30 hours
- growth of expressing strain (turbidity at 660 nm) ([4]; antigen at 1 ng/ml): dose-dependent growth
- growth of expressing strain (turbidity at 660 nm) ([4]; antigen at 5 to 10 ng/ml): dose-dependent growth
- growth of expressing strain (turbidity at 660 nm) ([5]; 10 μg/ml ampicillin, 10 ng/ml antigen, 27° C., 45 hours): ICP dependent-growth
- growth of expressing strain (turbidity at 660 nm) [5, 9]: no significant growth
- change in β-lactamase activity (absorbance at 490 nm) [6]: significant signal increase

Molecule: N#C/N=C1\SCCN1Cc1ccc(Cl)nc1 [TCP, thiacloprid]
- change in signal intensity (fluorescence) [2]: only the same signal intensity as PBS
- time after initiation of measurement from which growth was observed ([4]; TCP, later than ICP of the same concentration): about 30 hours
- growth of expressing strain (turbidity at 660 nm) ([4]; antigen at 10 ng/ml, similar to 1 ng/ml ICP): significant growth
- growth of expressing strain (turbidity at 660 nm) [5, 9]: no significant growth
- change in β-lactamase activity (absorbance at 490 nm) [6]: slight significant signal increase

Molecule: BGP-C7: antigen peptide (osteocalcin C-terminal peptide) recognised by antibody KTM219 (RRFYGPV)
- change in fluorescence intensity (535 nm) ([2]; antigen 0-2000 ng/ml, 300 nM fusion protein, dose-dependent): significant increase of the fluorescence intensity

Molecule: BGP-C8: BGP peptide detectable by open sandwich ELISA with KTM219 (YRRFYGPV)
- change in signal intensity (fluorescence) [2]: increase of the signal intensity

Molecule: BGP-C10: BGP peptide detectable by open sandwich ELISA with KTM219 (EAYRRFYGPV)
- change in signal intensity (fluorescence) [2]: increase of the signal intensity

B1: cpBLA: circularly permutated β-lactamase without antibody domains (SEQ ID NO: 13), control (protein, listed as Escherichia coli)
chain: NEAIPNDERDTTMPAAMATTLRKLLTGELLTLASRQQLIDWMEADKVAGPLLRSALPAGWFIADKSGAGERGSRGIIAALGPDGKPSRIVVIYTTGSQATMDERNRQIAEIGASLIKHWDKSHPETLVKVKDAEDQLGARVGYIELDLNSGKILESFRPEERFPMMSTFKVLLCGAVLSRIDAGQEQLGRRIHYSQNDLVEYSPVTEKHLTDGMTVRELCSAAITMSDNTAANLLLTTIGGPKELTAFLHNMGDHVTRLDRWEPELNEA
- ELISA signal regardless of the presence or absence of ICP (antigen) [7]: similarly low signal
- growth of expressing strain ([8]; ampicillin added): growth was not observed in any of the samples
- growth of expressing strain ([8]; ampicillin not added): growth was observed regardless of the presence or absence of the antigen
- antigen-dependent growth ([8]; any of the cpBLA expressing strains): antigen-dependent growth was not observed
